According to ChEMBL document CHEMBL1122874, “Orally absorbable cephalosporin antibiotics. 1. Structure-activity relationships of benzothienyl- and naphthylglycine derivatives of 7-aminodeacetoxycephalosporanic acid” (1985):
In brackets after ≈: the same amount, converted by molar mass.

Tests used:
[1] = system: Streptococcus pyogenes; assay: Antibacterial activity against Streptococcus pyogenes C203.; type: functional
[2] = system: Haemophilus influenzae; assay: Antibacterial activity against resistant Haemophilus influenzae 76.; type: functional
[3] = system: Staphylococcus aureus; assay: Antibacterial activity against penicillin G sensitive Staphylococcus aureus X1.1.; type: functional
[4] = system: Haemophilus influenzae; assay: Antibacterial activity against sensitive Haemophilus influenzae C.L.; type: functional
[5] = system: Streptococcus pneumoniae; assay: Antibacterial activity against Streptococcus pneumoniae Park.; type: functional
[6] = system: Streptococcus pneumoniae; assay: Antibacterial activity in mice infected with Streptococcus pneumoniae Park1; type: functional
[7] = system: Streptococcus pyogenes; assay: Antibacterial activity in mice infected with Streptococcus pyogenes C203 by oral administration; type: functional
[8] = system: Streptococcus pneumoniae; assay: Antibacterial activity in mice infected with Streptococcus pneumoniae Park1 by subcutaneous administration; type: functional
[9] = system: Streptococcus pyogenes; assay: Antibacterial activity in mice infected with Streptococcus pyogenes C203 by subcutaneous administration; type: functional
[10] = system: Streptococcus pneumoniae; assay: Antibacterial activity against Streptococcus pneumoniae Park.
[11] = system: Staphylococcus aureus; assay: Antibacterial activity in mice infected with Staphylococcus aureus 3055 by oral administration; type: functional
[12] = system: Staphylococcus aureus; assay: Antibacterial activity in mice infected with Staphylococcus aureus 3055 by subcutaneous administration; type: functional
[13] = system: Streptococcus pyogenes; assay: Antibacterial activity in mice infected with Streptococcus pyogenes C203; type: functional
[14] = system: Staphylococcus aureus; assay: Antibacterial activity in mice infected with Staphylococcus aureus 3055; type: functional
[15] = system: Streptococcus pneumoniae; assay: Antibacterial activity in mice infected with Streptococcus pneumoniae Park1 by oral administration; type: functional
[16] = system: Staphylococcus epidermidis; assay: Antibacterial activity against Staph. epidermis EP11; type: functional
[17] = system: Staphylococcus aureus; assay: Antibacterial activity against methicillin resistant Staphylococcus aureus X400; type: functional
[18] = system: Streptococcus; assay: Antibacterial activity against Streptococcus group D X66.; type: functional
[19] = system: Staphylococcus aureus; assay: Antibacterial activity against penicillin G sensitive Staphylococcus aureus V41; type: functional
[20] = system: Staphylococcus aureus; assay: Antibacterial activity against methicillin resistant Staphylococcus aureus S13E.; type: functional
[21] = system: Streptococcus pyogenes; assay: Antibacterial activity in mice infected with Streptococcus pyogenes C203 after oral administration; type: functional
[22] = system: Streptococcus pyogenes; assay: Antibacterial activity in mice infected with Streptococcus pyogenes C203 after subcutaneous administration; type: functional

| Structure (SMILES) | MIC [1] | MIC [2] | MIC [3] | MIC [4] | ED50 [8] | MIC [10] | ED50 [11] | ED50 [12] | MIC [13] | MIC [14] | ED50 [15] | MIC [16] | MIC [17] | MIC [18] | MIC [19] | MIC [20] | also measured |
| --- | --- | --- | --- | --- | --- | --- | --- | --- | --- | --- | --- | --- | --- | --- | --- | --- | --- |
| CC1=C(C(=O)O)N2C(=O)C(NC(=O)[C@H](N)c3csc4cccc(F)c34)C2SC1 (stereo not given in full) | 1 µg/mL (≈ 2.37 µM) | 4 µg/mL (≈ 9.49 µM) | 4 µg/mL (≈ 9.49 µM) | 16 µg/mL (≈ 38 µM) |  |  |  |  |  |  |  |  |  |  |  |  | MIC [5]: 4 µg/mL (≈ 9.49 µM) |
| CC1=C(C(=O)O)N2C(=O)C(NC(=O)[C@@H](N)c3cc4ccccc4s3)C2SC1 (stereo not given in full) | 0.5 µg/mL (≈ 1.24 µM) | 1 µg/mL (≈ 2.48 µM) | 0.5 µg/mL (≈ 1.24 µM) | 32 µg/mL (≈ 79.3 µM) | 15 mg/kg | 2 µg/mL (≈ 4.96 µM) | 0.13 mg/kg | 0.13 mg/kg | 0.25 µg/mL (≈ 0.62 µM) | 0.25 µg/mL (≈ 0.62 µM) | 31 mg/kg | 2 µg/mL (≈ 4.96 µM) |  |  |  |  | MIC [6]: 1 µg/mL (≈ 2.48 µM); ED50 [7]: 2.3 mg/kg; ED50 [9]: 2.6 mg/kg |
| CC1=C(C(=O)O)N2C(=O)C(NC(=O)[C@H](N)c3ccc4cc(Cl)ccc4c3)C2SC1 (stereo not given in full) | 0.06 µg/mL (≈ 0.139 µM) | 2 µg/mL (≈ 4.63 µM) | 0.25 µg/mL (≈ 0.579 µM) | 32 µg/mL (≈ 74.1 µM) |  | 0.25 µg/mL (≈ 0.579 µM) |  |  |  |  |  | 4 µg/mL (≈ 9.26 µM) | 64 µg/mL (≈ 148 µM) | 64 µg/mL (≈ 148 µM) | 8 µg/mL (≈ 18.5 µM) | 8 µg/mL (≈ 18.5 µM) |  |
| CC1=C(C(=O)O)N2C(=O)C(NC(=O)[C@@H](N)c3cc4c(s3)CCCC4)C2SC1 (stereo not given in full) | 0.06 µg/mL (≈ 0.147 µM) | 4 µg/mL (≈ 9.82 µM) | 0.25 µg/mL (≈ 0.613 µM) | 16 µg/mL (≈ 39.3 µM) |  | 0.25 µg/mL (≈ 0.613 µM) |  |  |  |  |  | 2 µg/mL (≈ 4.91 µM) |  | 64 µg/mL (≈ 157 µM) | 16 µg/mL (≈ 39.3 µM) | 8 µg/mL (≈ 19.6 µM) |  |
| CC1=C(C(=O)O)N2C(=O)[C@@H](NC(=O)[C@H](N)c3ccccc3)[C@H]2SC1 [CEPHALEXIN ANHYDROUS] | 0.5 µg/mL (≈ 1.44 µM) |  | 4 µg/mL (≈ 11.5 µM) |  | 23 mg/kg | 1 µg/mL (≈ 2.88 µM) | 0.34 mg/kg | 0.2 mg/kg | 0.5 µg/mL (≈ 1.44 µM) | 1 µg/mL (≈ 2.88 µM) | 51 mg/kg |  |  |  |  |  | ED50 [21]: 3.3 mg/kg; ED50 [22]: 2.9 mg/kg |
| CC1=C(C(=O)O)N2C(=O)C(NC(=O)[C@@H](N)c3cc4cc(Cl)ccc4s3)C2SC1 (stereo not given in full) | 0.125 µg/mL (≈ 0.285 µM) | 4 µg/mL (≈ 9.13 µM) | 0.25 µg/mL (≈ 0.571 µM) | 64 µg/mL (≈ 146 µM) |  | 0.25 µg/mL (≈ 0.571 µM) |  |  |  |  |  | 2 µg/mL (≈ 4.57 µM) |  |  | 8 µg/mL (≈ 18.3 µM) | 16 µg/mL (≈ 36.5 µM) |  |
| N[C@@H](C(=O)N[C@@H]1C(=O)N2C(C(=O)O)=C(Cl)CS[C@H]12)c1ccccc1 [CEFACLOR ANHYDROUS] |  |  |  |  | 11.5 mg/kg |  | 0.13 mg/kg | 0.03 mg/kg | 0.25 µg/mL (≈ 0.68 µM) | 1 µg/mL (≈ 2.72 µM) | 10.7 mg/kg |  |  |  |  |  | MIC [6]: 2 µg/mL (≈ 5.44 µM); ED50 [21]: 0.8 mg/kg; ED50 [22]: 1.4 mg/kg |
| COc1ccc2c([C@@H](N)C(=O)NC3C(=O)N4C(C(=O)O)=C(C)CSC34)csc2c1 (stereo not given in full) | 0.125 µg/mL (≈ 0.288 µM) | 4 µg/mL (≈ 9.23 µM) | 1 µg/mL (≈ 2.31 µM) | 32 µg/mL (≈ 73.8 µM) |  | 0.125 µg/mL (≈ 0.288 µM) |  |  |  |  |  | 4 µg/mL (≈ 9.23 µM) | 16 µg/mL (≈ 36.9 µM) |  | 8 µg/mL (≈ 18.5 µM) | 4 µg/mL (≈ 9.23 µM) |  |
| COc1ccc2cc([C@@H](N)C(=O)NC3C(=O)N4C(C(=O)O)=C(C)CSC34)ccc2c1 (stereo not given in full) | 0.125 µg/mL (≈ 0.292 µM) | 4 µg/mL (≈ 9.36 µM) | 0.25 µg/mL (≈ 0.585 µM) | 16 µg/mL (≈ 37.4 µM) |  | 0.125 µg/mL (≈ 0.292 µM) |  |  |  |  |  | 4 µg/mL (≈ 9.36 µM) | 64 µg/mL (≈ 150 µM) |  | 16 µg/mL (≈ 37.4 µM) | 16 µg/mL (≈ 37.4 µM) |  |
| CC1=C(C(=O)O)N2C(=O)C(NC(=O)[C@H](N)c3cccc4ccccc34)C2SC1 (stereo not given in full) | 2 µg/mL (≈ 5.03 µM) | 2 µg/mL (≈ 5.03 µM) | 1 µg/mL (≈ 2.52 µM) | 8 µg/mL (≈ 20.1 µM) |  | 2 µg/mL (≈ 5.03 µM) |  |  |  |  |  | 8 µg/mL (≈ 20.1 µM) | 64 µg/mL (≈ 161 µM) | 128 µg/mL (≈ 322 µM) | 32 µg/mL (≈ 80.5 µM) | 32 µg/mL (≈ 80.5 µM) |  |
